Experimental data published in patent US20250025451A1, “TREATMENT OF CANCER WITH KDM4 INHIBITORS” (Celgene Corporation, priority 2021, published 2025).
Read-outs that look alike come from different tables or passages of the source.

Columns and labels:
[1] = system: MDA-MB-231 cells; experiment: cell cycle analysis in MDA-MB-231 cells; format: cell-based
Description: FIG. 3 illustrates that Compound 1 induces cell cycle arrest in S-phase. […] Cell cycle analysis was performed with MDA-MB-231 cells and using MultiCycle AV DNA analysis software.

[2] = system: KYSE-150 human esophageal cancer xenograft; format: in vivo; details: for Median Tumor Volumes Day 19: KYSE-150 CDX Study #1, female NSG mice; for % TGI / Median Tumor Volumes Diff.: KYSE-150 Study #1; for % TGI: Day 19; for Median Tumor Volumes Diff.: Day 19 minus Day 1
Description: (§1) The therapeutic in vivo efficacy of Compound 1 was evaluated in SU60 colorectal cancer, KYSE-150 esophageal cancer, COH70 triple-negative breast cancer, GXA-3036 gastric adenocarcinoma and OCI-LY19 Diffuse Large B-Cell Non-Hodgkin's Lymphoma xenograft models. In all studies, efficacy was determined based on percent tumor growth inhibition (TGI), differences in mean tumor growth, and statistical assessment of differences in net tumor volume distributions on the day of TGI analysis between control and treated animals. Tolerability was assessed based on differences in mean body weights between control and treated animals over the course of the study.
Study #1—The in vivo therapeutic efficacy and tolerability of Compound 1, administered orally as the lysine salt suspended in a vehicle comprised of 10% PEG 400 and 90% of 0.5% methylcellulose (MC), was evaluated in the KYSE-150 ESCC CDX model established in female NSG mice. As presented in Table 5, […] at 5, 15, or 50 mg/kg (free acid equivalents) administered on the 3 on/4 off schedule yielded dose-dependent TGIs of 19%, 50%, and 72%, respectively. […] As shown in FIG. 11 (left panel), tumor growth in the Compound 1-treated groups was reduced relative to control animals. The relative rates of tumor growth among the various Compound 1-treated groups were consistent with the TGI attained at study end. As presented in FIG. 11 (right panel), Compound 1 appeared well-tolerated with nominal mean body weight gains over the course of the study. Each mouse was inoculated subcutaneously in the right flank with 1×10^7 KYSE-150 tumor cells (0.1 ml) suspended in PBS. When the average tumor size reached ˜117 mm3, test animals were randomized into 4 groups consisting of 9 mice per group and treatments were initiated. Control mice received 10% PEG 400 and 90% of 0.5% MC vehicle PO 3 on/4 off. Treated mice received the Compound 1 lysine salt form suspended in vehicle at 5, 15, or 50 mg/kg on the same schedule. TGI was determined on Day 19 as (1−Difftreated/Diffcontrol)×100; The difference mean net tumor volumes on the day of TGI analysis for treated versus control animals was evaluated statistically using one-way ANOVA followed by Dunnett's multiple comparisons test; Adjusted p-values are shown where a calculated probability (p)≤0.05 was considered statistically significant. Individual tumors were measured twice weekly in three dimensions using a caliper, and the tumor volumes (TV) in mm3 were calculated using the formula: TV=0.5 (l×w×h), where l, w, and h are the tumor length, width, and height in mm, respectively; Mean tumor volumes SEM were calculated and plotted versus days of dosing (left panel). Body weights were measured twice weekly. Body weights±SEM were calculated and plotted versus days of dosing (right panel).

[3] = system: T035C patient-derived colon cancer organoid model; experiment: organoid colony formation assay, T035C; format: cell-based, human
Description: The IC50 values for Compound 1 inhibition of colony formation and viability were determined for the patient-derived colon cancer organoid models: SU60, T002C, SU62, SU34, SU103, T03SC, and SU106, patient-derived pancreatic cancer organoid models PA016SF, PA0143F, T016P, and T028P, and a patient-derived breast cancer organoid model FS5S3.
Colony formation and viability assays were performed in multiwell plates seeded with organoids using an in vitro culture system composed of a Matrigel layer, media containing a defined set of growth factors, and co-culture with Wnt3 A-secreting mouse embryonic fibroblasts. Assays were initiated by adding either DMSO as a negative control, or an inhibitor panobinostatat 100×IC50 concentration as a positive control, or serially diluted Compound 1. The cultures were incubated for 168 or 144 hours after which the number of viable organoids in each test well was assessed respectively using one of two detection methods: CTG or staining with calcein-AM followed by imaging and colony counting. Colony count or viability of cells treated with compound 1 was expressed as a percent of the negative control. Aggregated Percent of Control values were plotted against the corresponding Compound 1 concentration and the absolute IC50 value was determined from a non-linear regression curve as the concentration where inhibition was 50% of the control.

[4] = system: OCI-LY19 human diffuse large B-cell non-Hodgkin's lymphoma xenograft; format: in vivo; details: for Median Tumor Volume Diff.: Day 21 minus Day 0
Description: as §1
The in vivo efficacy and tolerability of Compound 1, administered orally as the lysine salt form suspended in a 0.5% MC vehicle, were evaluated in female C.B-17 severe combined immunodeficient (scid) mice inoculated subcutaneously with OCI-LY19 tumor cells established from the bone marrow of a patient with diffuse large B-cell non-Hodgkin's lymphoma (DLBCL), stage 4B, at relapse. Each mouse was inoculated subcutaneously in the right flank with 5×10^6 OCI-LY19 tumor cells (0.1 ml) suspended in 50% Matrigel. When the average tumor size reached ˜165 mm3, test animals were randomized into 6 groups consisting of 8 mice per group and treatments were initiated. […] Compound 1-treated mice received the Compound 1 lysine salt form suspended in vehicle at 5, 15, or 50 mg/kg QD or at 25 mg/kg BID on the 3 on/4 off schedule. TGI was determined on Day 21 as (1−Difftreated/Diffcontrol)×100. Individual tumors were measured on the days shown in two dimensions using a caliper, and the tumor volumes (TV) in mm3 were calculated using the formula: TV=0.5 a×b2, where a and b are the long and short tumor diameters in mm, respectively. Mean tumor volumes±SEM were calculated and plotted versus days of dosing (FIG. 15 left panel). Body weights were measured twice weekly. Body weights±SEM were calculated and plotted versus days of dosing (FIG. 15 right panel). The difference in mean net tumor volumes on the day of TGI analysis for treated versus control animals was evaluated statistically using one-way ANOVA followed by Dunnett's multiple comparisons test; Adjusted p-values are shown where a calculated probability (p)≤0.05 was considered statistically significant.

## CC(C)c1ccc(N(C)c2ccc3c(c2)OCC[C@H]3CNc2cnccc2C(=O)O)cc1 [Compound 1, 3-({[(4R)-7-{methyl[4-(propan-2-yl)phenyl]amino}-3,4-dihydro-2H-1-benzopyran-4-yl]methyl}amino)pyridine-4-carboxylic acid]
[1]
  effect on cell cycle: increased proportion of cells in S-phase in a dose-dependent manner
[2]; lysine salt 5 mg/kg (free acid equivalents) PO 3 on/4 off
  Median Tumor Volumes Day 19: 824 mm^3
[2]; lysine salt 15 mg/kg (free acid equivalents) PO 3 on/4 off
  Median Tumor Volumes Day 19: 569 mm^3
[2]; lysine salt 50 mg/kg (free acid equivalents) PO 3 on/4 off
  Median Tumor Volumes Day 19: 359 mm^3
[2]; 5 mg/kg PO 3 on/4 off, 5 mg/kg
  % TGI: 19%
[2]; 5 mg/kg PO 3 on/4 off, listed as compound 4, 5 mg/kg
  % TGI: 19%
[2]; 5 mg/kg PO 3 on/4 off
  Median Tumor Volumes Diff.: 719 mm^3
[2]; 15 mg/kg PO 3 on/4 off, 15 mg/kg
  % TGI: 50%
[2]; 15 mg/kg PO 3 on/4 off, listed as compound 4, 15 mg/kg
  % TGI: 50%
[2]; 15 mg/kg PO 3 on/4 off
  Median Tumor Volumes Diff.: 442 mm^3
[2]; 50 mg/kg PO 3 on/4 off, 50 mg/kg
  % TGI: 72%
[2]; 50 mg/kg PO 3 on/4 off, listed as compound 4, 50 mg/kg
  % TGI: 72%
[2]; 50 mg/kg PO 3 on/4 off
  Median Tumor Volumes Diff.: 250 mm^3
[3]; Homo sapiens, T035C colorectal carcinoma model
  IC50: > 10 µM
[3]; T035C human colorectal carcinoma organoid, 144 hrs, Colony Counts
  IC50: > 10 µM
[4]; 5 mg/kg PO QD 3 on/4 off, Day 21, 5 mg/kg
  % TGI: 55%
[4]; 5 mg/kg PO QD 3 on/4 off
  Median Tumor Volume Diff.: 920 mm^3
[4]; 15 mg/kg PO QD 3 on/4 off, Day 21, 15 mg/kg
  % TGI: 83%
[4]; 15 mg/kg PO QD 3 on/4 off
  Median Tumor Volume Diff.: 345 mm^3
[4]; 25 mg/kg PO BID 3 on/4 off, Day 21, 25 mg/kg
  % TGI: 102%
[4]; 25 mg/kg PO BID 3 on/4 off
  Median Tumor Volume Diff.: −32 mm^3
[4]; 50 mg/kg PO QD 3 on/4 off, Day 21, 50 mg/kg
  % TGI: 90%
[4]; 50 mg/kg PO QD 3 on/4 off
  Median Tumor Volume Diff.: 196 mm^3
[4]; female C.B-17 scid mice, all Compound 1 regimens
  tolerability (mean body weights): well-tolerated
[4]; female C.B-17 scid mice, lysine salt 5 mg/kg PO QD 3 on/4 off
  Median Tumor Volume Day 21: 1088 mm^3
[4]; female C.B-17 scid mice, lysine salt 15 mg/kg PO QD 3 on/4 off
  Median Tumor Volume Day 21: 512 mm^3
[4]; female C.B-17 scid mice, lysine salt 25 mg/kg (free acid equivalents) PO BID 3 on/4 off
  Median Tumor Volume Day 21: 135 mm^3
[4]; female C.B-17 scid mice, lysine salt 50 mg/kg PO QD 3 on/4 off
  Median Tumor Volume Day 21: 361 mm^3
